What was measured:
[1] = biological target: T1, recombinant human B1 receptors (Homo sapiens, UniProt P46663); assay: Antagonist potency by measurement of cytosolic calcium ion concentration in CHO-B1 cells (agonist LysDABK); type: cell-based; conditions: inhibition of LysDABK (EC80)-evoked [Ca2+]i elevation, fluo-4, read-out: B1 func.
T1 construct: host or cells: CHO (CHO-B1)
T1 sequence (P46663 1-353): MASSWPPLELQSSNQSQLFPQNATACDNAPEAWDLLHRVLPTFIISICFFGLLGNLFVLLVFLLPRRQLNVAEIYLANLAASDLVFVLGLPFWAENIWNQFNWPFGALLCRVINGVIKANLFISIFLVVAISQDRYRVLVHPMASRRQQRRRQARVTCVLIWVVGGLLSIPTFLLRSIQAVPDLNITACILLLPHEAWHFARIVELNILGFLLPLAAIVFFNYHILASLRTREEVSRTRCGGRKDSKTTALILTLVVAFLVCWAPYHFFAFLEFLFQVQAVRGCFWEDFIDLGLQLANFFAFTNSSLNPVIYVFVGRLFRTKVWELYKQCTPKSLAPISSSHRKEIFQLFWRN
Protocol: Assessment of Antagonist Potency at B1 and B2 Receptors In Vitro by Measurement of Cytosolic Calcium Ion Concentration with a Plate Reader Fluorimeter in Cells Expressing Recombinant Human B1 or B2 Receptors
Chinese hamster ovary (CHO) cells stably expressing recombinant human B1 (CHO-B1, Euroscreen) or B2 (CHO-B2, Perkin-Elmer) receptors were cultured in Dulbecco's Modified Eagle's Medium (DMEM) containing 10% Fetal Calf Serum (FCS), 100 U/ml penicillin, 0.1 mg/ml streptomycin, 0.25 μg/ml amphotericin B, 1% Minimum Essential Medium Eagle (MEM), non essential amino acid solution, 600 μg/ml G418, 1% pyruvate (for the B2 cell line). Cells were kept at 37° C. in a humidified incubator in an atmosphere of 5% CO2/95% air and were passaged 1:4 three times a week. Cells were plated at 1.5-2.5×10^4 cell/well on standard 96-well microplates, measurements of cytosolic calcium ion concentration ([Ca^2+]i) were carried out 1-2 days after cell plating.
Measurements of [Ca^2+]i were carried out on CHO-B1 and CHO-B2 cells stably expressing human B1 and B2 receptors, respectively. Cells were grown in standard 96-well microplates and before the measurement were loaded with a fluorescent Ca^2+-sensitive dye, fluo-4/AM (2 μM): after removing the culture medium the dye was added to the cells (dissolved in assay buffer: 145 mM NaCl, 5 mM KCl, 2 mM MgCl2, 2 mM CaCl2, 10 mM HEPES, 20 mM D-glucose, 2 mM probenecid, 100 μl/well) and cells were incubated at 37° C. in a humidified incubator in an atmosphere of 5% CO2/95% air for 40-120 min. To stop dye loading cells were washed twice with assay buffer. After washing, various concentrations of the test compounds (diluted in extracellular medium from a DMSO stock solution, final DMSO concentration was <0.1%) or buffer were added to each well depending on the experimental setup. After incubation at 37° C. for 20-25 min. baseline and agonist-evoked changes of [Ca^2+]i were measured column by column with a plate reader fluorimeter (Fluoroskan Ascent, Labsystems). Excitation and detection of emission was carried out from the bottom of the plate. Filters used for Fluo-4: excitation filter −485 nm, emission filter −538 nm. The whole measurement process was performed at 37° C. and was controlled by custom software. Inhibitory potency of the test compounds was assessed by measuring the reduction in the agonist-evoked [Ca^2+]i-elevation in the presence of different concentrations of the compounds. The agonists were LysDABK for CHO-B1, and bradykinin for CHO-B2 cells. Agonists were applied at an EC80 concentration, the EC80-values were derived from daily determined dose-response curves. Fluorescence data were expressed as ΔF/F (fluorescence change normalized to baseline). All treatments on a single plate were measured in multiple wells. Data from all wells with the same treatment were averaged and the average values were used for analysis. Inhibitory potency of a compound at a single concentration point was expressed as percent inhibition of the control agonist response. Sigmoidal concentration-inhibition curves were fitted to the data (derived from at least three independent experiments) and IC50-values were determined as the concentration that produces half of the maximal inhibition caused by the compound.

[2] = biological target: T2, human recombinant bradykinin1 receptors (Homo sapiens, UniProt P46663); assay: Human recombinant bradykinin B1 receptor binding; conditions: CHO cell membranes, [3H]-[Des-Arg10] Kallidin radioligand
T2 construct: host or cells: CHO cells
T2 sequence (P46663 1-353): T1 sequence (P46663 1-353)
Protocol: Receptor Binding Assays 1. Human Recombinant Bradykinin B1 Receptor Binding
Binding assays were carried out on human recombinant bradykinin1 receptors (expressed in CHO cells) according to the Euroscreen Technical Data Sheet (Cat. No.: ES-091). 20 μg protein/tube was incubated with [3,4-prolyl-3,4-^3H(N)]-[Des-Arg^10] Kallidin as radioligand. Non specific binding was determined in the presence of 10 μM Lys-des-Arg^9-Bradykinin. The final incubation volume was 250 μl. Samples were incubated for 15 min. at 25° C. then were rapidly vacuum filtered through GF/B filters presoaked for at least 1 h in 0.5% PEI. Radioactivity was determined by liquid scintillation spectroscopy.

Row | SMILES | IC50 [1] | Ki [2]
1 | CC(C)N1CCN(C(=O)C2CCN(S(=O)(=O)c3ccc(NCC(c4ccccc4)c4ccccc4)c(C(=O)N4CCOCC4)c3)CC2)CC1 [Example 70002460, 4-{2-[(2,2-diphenyl-ethyl)-amino]-5-{[4-/(4-<1-methyl-ethyl>-1-piperazinyl)-carbonyl/-1-piperidinyl]-sulfonyl}-benzoyl}-morpholine, reference compound] | 100 to 500 nM | < 100 nM
2 | O=C(C[C@@H]1C(=O)Nc2ccccc2N1S(=O)(=O)c1ccc(Cl)c(Cl)c1)NCCc1ccc(C2=NCCN2)cc1 [Example 70004287, 2-[1-(3,4-dichloro-benzenesulfonyl)-3-oxo-1,2,3,4-tetrahydroquinoxalin-2(R)-yl]-N-{2-[4-(4,5-dihydro-1H-imidazol-2-yl)-phenyl]-ethyl}-acetamide, reference compound] | < 100 nM | < 100 nM

Source: patent US8034827B2, “Phenanthridine derivatives as bradykinin antagonists” (Richter Gegeon Nyrt., priority 2005, dated 2011)
